Among the data in ChEMBL document CHEMBL3621125, “Click-tailed coumarins with potent and selective inhibitory action against the tumor-associated carbonic anhydrases IX and XII” (Bioorg Med Chem, 2015) are Ki values, retold here.

One test concerns the target Carbonic anhydrase 2 (Homo sapiens, UniProt P00918). Description: Inhibition of human carbonic anhydrase 2 incubated for 6 hrs by stopped flow carbon-di-oxide hydrase assay.
The next test addresses Carbonic anhydrase 1 (Homo sapiens, UniProt P00915). Description: Inhibition of human carbonic anhydrase 1 incubated for 6 hrs by stopped flow carbon-di-oxide hydrase assay.
A further test deals with Carbonic anhydrase 9 (Homo sapiens, UniProt Q16790). Briefly: Inhibition of human carbonic anhydrase 9 incubated for 6 hrs by stopped flow carbon-di-oxide hydrase assay.

Usually Ki stands for the dissociation constant of the complex between target and ligand, obtained from inhibition or displacement.

Carbonic anhydrase 1, sequence (P00915 whole entry): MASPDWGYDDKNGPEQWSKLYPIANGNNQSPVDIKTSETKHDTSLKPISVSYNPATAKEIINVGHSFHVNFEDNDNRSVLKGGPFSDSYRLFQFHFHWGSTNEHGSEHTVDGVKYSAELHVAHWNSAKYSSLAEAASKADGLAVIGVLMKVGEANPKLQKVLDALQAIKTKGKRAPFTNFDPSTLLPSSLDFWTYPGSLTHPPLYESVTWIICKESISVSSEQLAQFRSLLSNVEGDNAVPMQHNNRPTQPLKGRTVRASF

As for `O=c1ccc2ccc(OCc3cn(-c4cccc(Br)c4)nn3)cc2o1`, the figures for the Ki on Carbonic anhydrase 2, at Carbonic anhydrase 1 and on Carbonic anhydrase 9 were more than 10000 nM, more than 10000 nM and 27.5 nM, respectively.

Take `O=C(O)c1ccc(-n2cc(COc3ccc4ccc(=O)oc4c3)nn2)cc1`: the inhibition constant Ki at Carbonic anhydrase 2 is 99.6 nM; at Carbonic anhydrase 9 it was 28.8 nM.

For the compound `O=c1ccc2ccc(OCc3cn(-c4ccc(C(F)(F)F)cc4)nn3)cc2o1`, the Ki on Carbonic anhydrase 2 was more than 10000 nM.

For the compound `Cc1cc(=O)oc2cc(-n3cc(CNc4ccccc4)nn3)ccc12`, the values for the Ki on Carbonic anhydrase 2 and on Carbonic anhydrase 9 were 9740 nM and 34.4 nM, respectively.

Turning to `O=c1ccc2ccc(OCc3cn(-c4cccc(Cl)c4)nn3)cc2o1`, the values for the Ki at Carbonic anhydrase 2, at Carbonic anhydrase 1 and at Carbonic anhydrase 9 were more than 10000 nM, more than 10000 nM and 31.2 nM, respectively.

As for `Cc1cc(=O)oc2cc(-n3cc(COc4ccc5ccc(=O)oc5c4)nn3)ccc12`, the inhibition constant Ki on Carbonic anhydrase 2 was more than 10000 nM; on Carbonic anhydrase 1, more than 10000 nM; on Carbonic anhydrase 9, 22.8 nM.

Consider `O=c1ccc2ccc(OCc3cn(-c4ccccc4)nn3)cc2o1`, for which the inhibition constant Ki at Carbonic anhydrase 2 is more than 10000 nM; on Carbonic anhydrase 1, more than 10000 nM; on Carbonic anhydrase 9, 24.5 nM.

Regarding `Cc1cc(=O)oc2cc(-n3cc(COc4ccccc4)nn3)ccc12`, the Ki at Carbonic anhydrase 2 was more than 10000 nM; at Carbonic anhydrase 9 it was 33.1 nM.

For the compound `O=c1ccc2ccc(OCc3cn(-c4ccc(F)cc4)nn3)cc2o1`, the Ki on Carbonic anhydrase 2 is more than 10000 nM; at Carbonic anhydrase 9 it was 24 nM.

As for `O=c1ccc2ccc(OCc3cn(-c4ccc(O)cc4)nn3)cc2o1`, the Ki on Carbonic anhydrase 2 was more than 10000 nM; on Carbonic anhydrase 9, 26.9 nM.

Consider `NS(=O)(=O)c1ccc(-n2cc(COc3ccc4ccc(=O)oc4c3)nn2)cc1`, for which the figures for the Ki at Carbonic anhydrase 2 and at Carbonic anhydrase 9 were more than 10000 nM and 14.3 nM, respectively.

As to `O=c1ccc2ccc(OCc3cn(-c4cccc(F)c4)nn3)cc2o1`, the Ki at Carbonic anhydrase 2 was more than 10000 nM; at Carbonic anhydrase 9, 24.9 nM.

As to `Cc1cc(=O)oc2cc(-n3cc(CSc4ccccc4)nn3)ccc12`, at Carbonic anhydrase 2, the Ki is more than 10000 nM.

Turning to `COc1cccc(-n2cc(COc3ccc4ccc(=O)oc4c3)nn2)c1`, the inhibitory constant (Ki) was more than 10000 nM at Carbonic anhydrase 2 and 23.6 nM at Carbonic anhydrase 9.
